Laboratory results reported in patent US11358931B2, “Selective androgen receptor modulators (SARMs) and uses thereof” (priority 2007, dated 2022).
pIC50: −log10 of the molar value.

Legend:
[1] = Toxicokinetics in cynomolgus monkeys (14-day oral study); type: in vivo, cynomolgus monkey
Description: A study was performed to determine any potential toxicity and the toxicokinetic profile of Compound 102 when administered orally (via nasal gavage) to cynomolgus monkeys for at least 14 days. The cynomolgus monkey was chosen for this study as it is a non-rodent species that is commonly used for non-clinical toxicity evaluations. Use of the monkey model maximized the likelihood of identifying toxicological responses that may occur in humans. Ten experimentally naïve cynomolgus monkeys (5 male and 5 female) from about 2.5 to 3 years of age and weighing between about 2.3 to about 2.8 kg at Day −1 of the study were assigned to dose groups as shown in Table 6 below.
All animals were dosed via nasal gavage once daily for 14 consecutive days. The first day of dosing was designated Day 1 for all animals. The animals were evaluated for clinical signs (evaluation of mortality and morbidity, twice daily), cage side observations and food consumption (once daily), body weight (Days 1, 8 and 14), physical examination (Day −5 and post dosing following the 13/24 hour toxicokinetic collection on Day 14), ophthalmic examination (prestudy and owing the Day 13/24 hour toxicokinetic collection on Day 14), and clinical pathology parameters (serum chemistry, hematology and coagulation on Days −3 and 14), urine samples were collected during necropsy (Day 15) for urinalysis. Blood samples were collected for toxicokinetic analysis at 1, 2, 4, 8, 12 and 24 hours post dose on Days 1 and 13.

hGR = biological target: T1, hGR (Homo sapiens, UniProt P04150); test: Co-transfection assay, other nuclear receptors: hGR; type: cell-based
T1 construct: expressed in transfected cells
T1 sequence (P04150 1-777): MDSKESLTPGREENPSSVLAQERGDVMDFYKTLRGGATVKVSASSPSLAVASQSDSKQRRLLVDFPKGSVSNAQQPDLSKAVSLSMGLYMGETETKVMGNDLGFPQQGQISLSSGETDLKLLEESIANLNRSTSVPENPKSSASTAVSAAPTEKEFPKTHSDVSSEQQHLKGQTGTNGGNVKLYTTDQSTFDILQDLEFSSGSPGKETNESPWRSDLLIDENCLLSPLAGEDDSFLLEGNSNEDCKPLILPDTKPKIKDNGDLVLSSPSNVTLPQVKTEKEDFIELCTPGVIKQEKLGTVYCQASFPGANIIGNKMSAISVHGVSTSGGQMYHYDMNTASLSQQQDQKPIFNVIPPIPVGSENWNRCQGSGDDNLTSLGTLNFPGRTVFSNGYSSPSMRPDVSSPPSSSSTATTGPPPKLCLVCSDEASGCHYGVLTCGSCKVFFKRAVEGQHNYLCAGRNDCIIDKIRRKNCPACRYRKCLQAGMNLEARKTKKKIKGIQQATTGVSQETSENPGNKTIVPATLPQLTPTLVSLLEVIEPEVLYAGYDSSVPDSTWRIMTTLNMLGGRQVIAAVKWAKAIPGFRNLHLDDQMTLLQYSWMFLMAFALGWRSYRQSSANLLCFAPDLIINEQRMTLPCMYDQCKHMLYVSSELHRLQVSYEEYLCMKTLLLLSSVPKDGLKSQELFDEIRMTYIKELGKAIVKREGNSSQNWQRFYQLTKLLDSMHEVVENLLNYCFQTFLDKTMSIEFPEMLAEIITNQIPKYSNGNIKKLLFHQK
Source text: An exemplary co-transfection assay is the luciferase reporter assay (Evans, Science 240: 889-895 (1988), Berger et al., J Steroid Biochem Mol Biol 41: 733-738 (1992)) can be used to establish the ability of a compound of formulae I, II or III to activate (agonist activity) or repress (antagonist activity) the ability of the human androgen receptor (hAR) to induce gene expression. A human cell line containing endogenously expressed hAR (e.g., MDA-MB-453 cells, derived from a human mammary carcinoma, American Tissue Type Culture Collection [ATCC] HTB 131) can be transfected with an androgen responsive luciferase reporter plasmid to measure the level of cross-reactivity of the compound on other nuclear receptors (such as the glucocorticoid receptor (GR), estrogen receptor (ER), mineralocorticoid receptor (MR), progesterone receptor (PR), retinoid receptor (RAR), retinoid X receptor (RXR), peroxisome proliferator activating receptors alpha (PPARα), gamma (PPARγ) and delta (PPARδ), liver X receptor (LXR), farnesyl X receptor (FXR) and the pregnane X receptor (PXR)). In the assay, luciferase reporter plasmids containing the cDNA for firefly luciferase (LUC) under the control of a conditional promoter containing hormone response elements recognized by the appropriate nuclear receptor are co-transfected into cells with the nuclear receptor expression plasmid. […]

N#Cc1ccc(N2CCC[C@@H]2[C@@H](O)C(F)(F)F)cc1C(F)(F)F [Compound 102, R,R-4-(2-(1-Hydroxyl-2,2,2-trifluoroethyl)-pyrrolidinyl)-2-trifluoromethyl-benzonitrile]
sex difference in toxicokinetic parameters ([1]; Day 1 and Day 13): no noticeable sex difference
effect of repeat administration on systemic exposure ([1]; Day 13 relative to Day 1): decreased on Day 13
systemic exposure versus dose ([1]; both sexes): increased with increasing dose up to 450 mg/kg
pIC50 (hGR): 5.80
antagonism of dexamethasone-induced activation of hGR (efficacy) (hGR; dexamethasone-induced activation): 60%
